The values that follow come from ChEMBL document CHEMBL1201862, “PubChem BioAssay data set” (2004).

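Method: 48-hour compound exposure of cells in 96-well plates, five concentrations, linear interpolation of endpoints. GI50 = concentration required for 50% inhibition of growth.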 The source made the active and inactive calls. Cut-off read from the data, not from the text of the source: active = GI50 up to about 1.1 µM and inactive = higher.

Some test systems named below: 786-0; ACHN; COLO 205; HCT-116; HOP-62; IGROV-1; MCF7; MDA-N; MOLT-4; Malme-3M; NCI-H522; NCI/ADR-RES; PC-3; SF-268; U-251; UACC-257; HOP-92; MDA-MB-435; OVCAR-3; RPMI-8226.
Holding throughout (assay): NCI anticancer screen, dose series, 48 h

As for `C[Si](C)(C)C#CCOC=C1CC1`, the GI50 in the test with 786-0 was 47.1 µM (inactive); in the test on ACHN, > 100 µM (inactive); with COLO 205 it was > 100 µM (inactive); in the test on HCT-116, > 100 µM (inactive); with HOP-62 it was > 100 µM (inactive); in the test with IGROV-1, 70.8 µM (inactive). In addition, the GI50 in the test with MCF7, with MDA-N, in the test on MOLT-4, with Malme-3M, in the test with NCI-H522 and in the test on NCI/ADR-RES was > 100 µM (inactive) in each case. Moreover, the GI50 in the test on PC-3, in the test on SF-268, in the test with U-251 and in the test on UACC-257 was > 100 µM (inactive) in each case.
Regarding `COC1(OC)C2C=CC1C([C@](C)(N)CO)C2` (some centres not stated), the GI50 with 786-0, in the test with ACHN, in the test with COLO 205, with HCT-116, in the test with HOP-62 and in the test on HOP-92 was > 100 µM (inactive) in each case. For the same compound, the GI50 in the test on IGROV-1, with MCF7, with MDA-MB-435, with MDA-N, with MOLT-4 and in the test on Malme-3M was > 100 µM (inactive) each time. Further, the GI50 with NCI-H522, in the test on OVCAR-3, in the test on PC-3, with SF-268, with U-251 and in the test on UACC-257 was > 100 µM (inactive) in each case.
In the case of `NC(=O)c1c(NC=O)ncn1C1OCC(O)C(O)C1O` (configuration not stated), the GI50 in the test with 786-0, in the test on ACHN, with COLO 205, with HCT-116, in the test with HOP-62 and with HOP-92 was > 100 µM (inactive) in each case. In addition, the GI50 with IGROV-1, in the test on MDA-MB-435, with MDA-N, with MOLT-4, in the test on Malme-3M and in the test on NCI-H522 was > 100 µM (inactive) each time. Further, the GI50 with NCI/ADR-RES, in the test on OVCAR-3, in the test with PC-3, in the test with RPMI-8226, with SF-268 and in the test on U-251 was > 100 µM (inactive) each time. Further, the GI50 with UACC-257 was > 100 µM (inactive).
Turning to `CCOC(=O)C(NC(=O)Nc1ccccc1F)(OC)C(F)(F)F` (configuration not stated), the GI50 with 786-0, with ACHN, with COLO 205, in the test with HCT-116, with IGROV-1 and with MDA-MB-435 was > 100 µM (inactive) throughout. Besides, the GI50 with MDA-N, with MOLT-4, in the test with NCI/ADR-RES, with PC-3, in the test with RPMI-8226 and in the test with SF-268 was > 100 µM (inactive) each time. Moreover, the GI50 in the test on U-251 and in the test on UACC-257 was > 100 µM (inactive) in each case.
In the case of `CC(=O)NC1c2ccccc2C(C)(C)C12CCC1(CC2)OCCO1` (configuration not stated), the GI50 with 786-0, in the test with ACHN, in the test with COLO 205, in the test on HCT-116, with HOP-62 and in the test on IGROV-1 was > 100 µM (inactive) throughout. Further, the GI50 is > 100 µM (inactive) in the test with MCF7; > 100 µM (inactive) in the test on MDA-N; > 100 µM (inactive) in the test with MOLT-4; 98.6 µM (inactive) in the test with Malme-3M; > 100 µM (inactive) in the test on NCI-H522; > 100 µM (inactive) in the test with NCI/ADR-RES. For the same compound, the GI50 with PC-3, in the test with RPMI-8226, in the test with SF-268, with U-251 and in the test on UACC-257 was > 100 µM (inactive) in each case.
On to `COCC(=O)[C@]1(O)Cc2c(O)c3c(c(O)c2[C@@H](OC2CC(N)C(O)C(C)O2)C1)C(=O)c1c(OC)cccc1C3=O` (some centres not stated), for which the GI50 in the test with 786-0 is 0.0373 µM (active); in the test with ACHN, 0.0703 µM (active); in the test with COLO 205, 0.168 µM (active); with HCT-116, 0.0493 µM (active); with HOP-62 it was 0.11 µM (active); in the test with HOP-92 it was 0.13 µM (active). The GI50 with IGROV-1 is 0.136 µM (active); in the test on MDA-MB-435 it was 0.188 µM (active); in the test with MDA-N, 0.0767 µM (active); in the test on MOLT-4 it was 0.014 µM (active); in the test with Malme-3M it was 0.105 µM (active); in the test on NCI-H522, 0.0255 µM (active). The GI50 with OVCAR-3 was 0.115 µM (active); with PC-3, 0.0791 µM (active); in the test with RPMI-8226, 0.08 µM (active); with SF-268, 0.0351 µM (active); with U-251, 0.0836 µM (active); in the test with UACC-257 it was 0.299 µM (active).
On to `Cc1cc(O)c2c(c1O)C(=O)C1=C(C2=O)C(=O)C2C(O)C1C1C(O)CC(O)=C3C(=O)c4c(O)cc(C)c(O)c4C(=O)C321` (configuration not stated), for which the GI50 in the test with 786-0 is 1.71 µM (inactive); in the test on ACHN, 1.35 µM (inactive); with COLO 205, 0.834 µM (active); with HCT-116, 0.541 µM (active); with HOP-62 it was 2.48 µM (inactive); with IGROV-1 it was 2.36 µM (inactive). For the same compound, the GI50 in the test with MCF7 is 2.62 µM (inactive); with MDA-MB-435 it was 1.36 µM (inactive); in the test on MDA-N, 1.44 µM (inactive); in the test on MOLT-4 it was 1.52 µM (inactive); in the test on Malme-3M, 0.982 µM (active); in the test on OVCAR-3, 1.3 µM (inactive). Moreover, the GI50 is 0.628 µM (active) in the test on PC-3; 0.164 µM (active) with RPMI-8226; 2.28 µM (inactive) in the test with SF-268; 0.658 µM (active) in the test with U-251; 0.789 µM (active) with UACC-257.
`C=C1CN=C(Nc2ccc(Cl)cc2)S1`: the GI50 was > 100 µM (inactive) in the test on 786-0; > 100 µM (inactive) in the test with ACHN; > 100 µM (inactive) in the test on COLO 205; > 100 µM (inactive) in the test on HCT-116; > 100 µM (inactive) in the test with HOP-62; 28.2 µM (inactive) in the test with HOP-92. Besides, the GI50 in the test on IGROV-1 was > 100 µM (inactive); in the test with MCF7, 45.6 µM (inactive); in the test on MDA-N, > 100 µM (inactive); in the test on MOLT-4 it was > 10 µM (inactive); with Malme-3M, > 100 µM (inactive); with NCI/ADR-RES, > 100 µM (inactive). The GI50 in the test with OVCAR-3 was > 100 µM (inactive); in the test with PC-3, > 100 µM (inactive); with RPMI-8226 it was 83.8 µM (inactive); in the test on SF-268, > 100 µM (inactive); with U-251, 93.3 µM (inactive); with UACC-257 it was > 100 µM (inactive).
